Laboratory results reported in US20070110693A1, “COMPOSITIONS CONTAINING PEPTIDE COPPER COMPLEXES AND SOFT TISSUE FILLERS, AND METHODS RELATED THERETO” (PROCYTE CORPORATION, priority 2002, published 2007).

What was measured:
collagen synthesis = test: Subcutaneous stainless steel chamber implant model: collagen content measured as hydroxyproline (HYP); format: in vivo, rat
Text: (§1) The subcutaneous implantation of stainless steel chambers in rats provides a model for studying the synthesis of extracellular matrix components (collagen and glycosaminoglycan) by providing a recoverable site of new matrix synthesis. The assay involves implanting in each rat, two cylindrical stainless steel chambers (1 cm in diameter×2.5 cm long, 312 SS, 20 mesh, with Teflon end caps), one on each side of the rats' dorsal midline. After allowing for encapsulation of the chambers, both chambers on each rat were injected with 0.2 ml of a solution containing the representative soft tissue filler or saline on day 4 after implantation, and the test peptide copper compound (or saline alone as a control) on days 6, 8, 11, 13, 15, 16, and 18. Chambers were removed from the animals on day 30 after implantation for biochemical analysis.
The chambers were lyophylized and the interior contents removed for biochemical analysis. The biochemical parameters examined include collagen content, the latter being measured as a hydroxyproline (“HYP”) content. The latter, an amino acid specific for collagen, was measured after acid hydrolysis and using a colormetric assay for HYP (see e.g., Bergman, I and Loxley, R., “The Determination of Hydroxyproline in Urine Hydrolysates,” Clin. Chim. Acta. 27: 347-349, 1970). Collagen content was expressed as μg of HYP per chamber or per milligram of protein.
(§2) In this example, hydroxypropyl methyl cellulose was used as the soft tissue filler. A dose of 6 milligrams of the hydroxypropyl methyl cellulose, as a gel, was injected into each of the chambers. Injections of saline served as controls.
(§3) Glycyl-L-histidyl-L-lysine:copper(II) (“GHK-Cu”), was used as the peptide copper complex used. The GHK-Cu was prepared at a molar ratio of 2 moles of peptide to one mole of copper(II), and dissolved in a saline solution at a concentration of 10 milligrams/milliliter. A dose of […] of GHK-Cu was injected for each day of treatment.
(§4) The stimulation of collagen and GAG synthesis by injection of various peptide copper complexes has been determined by methods described in Example 1. The peptide copper complexes used were L-alanyl-L-histidyl-L-lysine:copper(II) (“AHK-Cu”), prepared at a molar ratio of 1 mole of peptide to one mole of copper(II), and glycyl-L-histidyl-L-lysyl-L-valyl-L-phenylalanyl-L-valine:copper(II) (“GHKVFV-Cu”), prepared at a molar ratio of 2 moles of peptide to one mole of copper(II). The peptide copper complexes were dissolved in a saline solution at a concentration of 10 milligrams/milliliter. A dose of 2.4 micromoles of peptide copper complex was injected on each treatment day.
The stimulation of collagen synthesis by injection of various peptide copper complexes has been determined by methods described in Examples 1 and 2. […]

[1] = tested on: glycosaminoglycan (GAG) synthesis; test: Subcutaneous stainless steel chamber implant model: glycosaminoglycan (GAG) content measured as uronic acid (UA); format: in vivo, rat
Text: as §1
The chambers were also analyzed for glycosaminoglycan content, another component of the extracellular matrix or skin. Glycosaminoglycan (“GAG”) content was determined by quantifying the amount of uronic acid (“UA”), a carbohydrate component specific for GAGs. UA was determined by a colorimetric assay, as described using 2-hydroxydiphenyl as a reagent (see, e.g., Vilim, V., “Colorimetric Estimation of Uronic Acids using 2-hydroxydiphenyl as a Reagent,” Biomed. Biochim. Acta. 44 11/12 s: 1717-1720, 1985). GAG content was expressed as μg of UA per chamber.
as §2, §3, §4

[2] = Example 2, 2.4 micromoles of peptide copper complex per treatment day, saline control 60 ± 5
[3] = Example 3, 0.6 mg of peptide copper complex per treatment day, saline control 1838 ± 636

Substance	μg Uronic Acid/Chamber Mean ± SEM [1, 2]	μg HYP/Chamber Mean ± SEM (collagen synthesis; [3])	also measured
Glycyl-L-histidyl-L-lysine:copper(II) [GHK-Cu]			μg HYP/Chamber Mean ± SEM (collagen synthesis; Example 1, GHK-Cu 0.2 mg per treatment day in combination with soft tissue filler HPMC 6 mg on day 4, chambers removed day 30, saline control 1222 ± 111): 3423 ± 341 μg HYP/Chamber; μg HYP/Chamber Mean ± SEM (collagen synthesis; Example 1, agent alone (GHK-Cu 0.2 mg per treatment day on days 6-18, or HPMC gel 6 mg on day 4), chambers removed day 30, saline control 1222 ± 111): 4226 ± 265 μg HYP/Chamber; μg Uronic Acid/Chamber Mean ± SEM ([1]; Example 1, GHK-Cu 0.2 mg per treatment day in combination with soft tissue filler HPMC 6 mg on day 4, chambers removed day 30, saline control 46.3 ± 5.8): 88.1 ± 5.6 μg Uronic Acid/Chamber; μg Uronic Acid/Chamber Mean ± SEM ([1]; Example 1, agent alone (GHK-Cu 0.2 mg per treatment day on days 6-18, or HPMC gel 6 mg on day 4), chambers removed day 30, saline control 46.3 ± 5.8): 117.3 ± 12.9 μg Uronic Acid/Chamber
L-alanyl-L-histidyl-L-lysine:copper(II) [AHK-Cu]	105 ± 21 μg Uronic Acid/Chamber		
glycyl-L-histidyl-L-leucine methyl ester:copper(II) [GHL-Me-Cu]		3357 ± 863 μg HYP/Chamber	
glycyl-L-histidyl-L-leucine:copper(II) [GHL-Cu]		3619 ± 754 μg HYP/Chamber	
glycyl-L-histidyl-L-lysyl-L-valyl-L-phenylalanyl-L-valine:copper(II) [GHKVFV-Cu]	79 ± 9 μg Uronic Acid/Chamber		
